Here are results for four molecules from paper PMC12429564.

In data set [1] the test system is U31 (DNA, aptamer) ATCCAGAGTGACGCAGCATTTGTTTAATATGTTTTTTAATTCCCCTTGTGGTGTGTTGTGGACACGGTGGCTTAGT
The data set can be described thus: fluorescence quenching titration, Hill fit. The note with it: 50 mM NaCl, 10 mM KCl, 5 mM MgCl2; Tris-HCl pH 7.4; 1.5 μM DOX titrated with nucleic acid; apparent; Hill n = 0.95 ± 0.04.

Data set [2] concerns GR20 (DNA, aptamer) ACGCACCATTTGTTTAATATGTTTTTTAATTCCCCTTGTGGTGTGT
Briefly: fluorescence quenching titration, Hill fit. The note with it: 50 mM NaCl, 10 mM KCl, 5 mM MgCl2; Tris-HCl pH 7.4; 1.5 μM DOX titrated with nucleic acid; apparent; Hill n = 1.13 ± 0.03.

Data set [3] deals with hh’ (DNA, duplex) CATTTAGGACCAACACAA/TTGTGTTGGTCCTAAATG
Briefly: fluorescence quenching titration, Hill fit. The note with it: 50 mM NaCl, 10 mM KCl, 5 mM MgCl2; Tris-HCl pH 7.4; 1.5 μM DOX titrated with nucleic acid; apparent; Hill n = 0.96 ± 0.03.

The test system of data set [4] is ACCO GR20hh’ (DNA, aptamer) ACGCACCATTTGTTTAATATGTTTTTTAATTCCCCTTGTGGTGTGTTTCATTTAGGACCAACACAA/TTGTGTTGGTCCTAAATG
Briefly: fluorescence quenching titration, Hill fit. The note with it: 50 mM NaCl, 10 mM KCl, 5 mM MgCl2; Tris-HCl pH 7.4; 1.5 μM DOX titrated with nucleic acid; apparent; Hill n = 1.58 ± 0.09.

Data set [5] deals with T1, EGFR* (recombinant extracellular domain of human EGFR) (human, UniProt P00533 25-645). The data set can be described thus: BLI; kon 4.3e5 M-1 s-1; koff 61e-4 s-1; BLI buffer and temperature not in the material; aptamers folded at 1 uM in PBS with 5 mM MgCl2 (95 C 5 min, slow cooling); ACCO assembled in PBS + 5 mM MgCl2 or Tris-HCl pH 7.4, 50 mM NaCl, 10 mM KCl, 5 mM MgCl2. The note with it: protein: recombinant; imperfect hairpin (predicted).

Data set [6] has as its target T1, EGFR* (recombinant extracellular domain …). The data set can be described thus: BLI; kon 3.7e5 M-1 s-1; koff 40e-4 s-1; BLI buffer and temperature not in the material; aptamers folded at 1 uM in PBS with 5 mM MgCl2 (95 C 5 min, slow cooling); ACCO assembled in PBS + 5 mM MgCl2 or Tris-HCl pH 7.4, 50 mM NaCl, 10 mM KCl, 5 mM MgCl2. Conditions: protein: recombinant; 18 bp duplex of S5 with 3' end of S3; GR20 part imperfect hairpin (predicted).

Data set [7] shares this target. Briefly: BLI; kon 2.0e5 M-1 s-1; koff 29e-4 s-1; possibly from the authors' earlier work [36], not marked as cited in table; BLI buffer and temperature not in the material; aptamers folded at 1 uM in PBS with 5 mM MgCl2 (95 C 5 min, slow cooling); ACCO assembled in PBS + 5 mM MgCl2 or Tris-HCl pH 7.4, 50 mM NaCl, 10 mM KCl, 5 mM MgCl2. The note with it: protein: recombinant; imperfect hairpins (predicted).

Regarding `COc1cccc2c1C(=O)c1c(O)c3c(c(O)c1C2=O)C[C@@](O)(C(=O)CO)C[C@@H]3O[C@H]1C[C@H](N)[C@H](O)[C@H](C)O1`, the aKd is reported as 47 ± 3 nM in data set [1], 90 ± 3 nM in data set [2], 124 ± 3 nM in data set [3] and 26 ± 1 nM in data set [4].

B1: GR20 (ssDNA)
DNA: ACGCACCATTTGTTTAATATGTTTTTTAATTCCCCTTGTGGTGTGT
As to B1, the dissociation constant Kd (as a rule, the concentration at which binding is half-saturated) in data set [5] is 14.2 ± 0.5 nM.

B2: ACCO GR20hh' (mixed)
DNA 1: ACGCACCATTTGTTTAATATGTTTTTTAATTCCCCTTGTGGTGTGTTTCATTTAGGACCAACACAA
DNA 2: TTGTGTTGGTCCTAAATG
On to B2, for which, in data set [6], the equilibrium dissociation constant (Kd) is 10.8 ± 1.4 nM.

B3: U31 (ssDNA)
DNA: ATCCAGAGTGACGCAGCATTTGTTTAATATGTTTTTTAATTCCCCTTGTGGTGTGTTGTGGACACGGTGGCTTAGT
On to B3, for which the dissociation constant (Kd) in data set [7] was 15 ± 1.7 nM.
